Assay results as given in patent publication US12011475B2, “Polypeptide, polypeptide fragment, derivative thereof, and applications thereof” (CHENGDU HUITAI BIOMEDICINE CO., LTD., priority 2017, dated 2024).
Ends that are not written are not given here.

Columns and labels:
Assay type in all cases: in vivo
[1] = system: rat with pulmonary fibrosis induced by bleomycin; assay: Rat weight, intratracheal instillation (Examples 15-16); conditions: Day 14/Day 0, 8 mg/kg peptide + 4 mg/kg bleomycin simultaneously, Mean ± SEM
Procedure: The rats were weighed before administration, intramuscular injection of Zoletil anesthetic solution, the dose was 65 mg/kg. After the rats entered the stage III anesthesia, the experimental rats were bond in the incline lateral decubitus. A size 12 gavage needle was inserted into rat trachea through oral cavity along the glottis to infuse the drug. The experimental animals were fed normally from the 1st day to the 14th day after intratracheal administration, and were weighed regularly every day without restriction of feed or drinking water.
The rats in model group were intratracheally instilled with bleomycin (4 mg/kg); after anesthesia, the rats in treatment groups were intratracheally instilled with bleomycin (4 mg/kg) and corresponding therapeutic drug (8 mg/kg) simultaneously. The remaining implementation steps were the same as the description of Example 9.
The model and the administration route were referred to Example 15. The experimental rats in the control group, the model group, and the treatment groups described in Example 15 were weighted every day from the 1st day until the 14th day. When weighing, the “unstable weighing” of the electronic balance was selected, and an appropriate number of weighing and a degree of tolerable instability during the reading phase were set according to the instructions to weigh and record the readings. […]

[2] = system: rat with pulmonary fibrosis induced by bleomycin; assay: Lung coefficient, intravenous injection (Example 22); conditions: lung mass (mg)/body weight (g); intravenous injection 10 mg/kg once a day, 4th to 13th day after bleomycin 4 mg/kg; Mean ± SEM
Procedure: The rats in Example 2 were weighed and sacrificed by anesthesia overdose. Lung tissue of both sides of the rats was taken, and the connective tissue around the lung tissue was carefully removed. After washing with saline and dried with a filter paper, the wet weight of the whole lung was weighted by an electronic balance. After the wet weight of the whole lung was weighted by the electronic balance, the lung coefficient was calculated according to the formula, lung coefficient=lung mass (mg)/body weight (g) (the result is shown in FIG. 1).
(§1) The rats were weighed before administration, intramuscularly injected with 65 mg/kg Zoletil anesthetic solution. After the rats entered the stage III anesthesia, the experimental rats were fixated in the lateral decubitus. Gavage needle size 12 was inserted into rat trachea through oral cavity along the glottis to instill sterile saline or bleomycin (4 mg/kg) (Day 0). After the anesthesia, the rats in control group were intratracheally instilled with an equal volume of sterile saline, and the rats in model group and treatment groups were intratracheally instilled with bleomycin (4 mg/kg). […]
The experimental rats of the control group, the model group and the treatment groups of Example 20 were taken, the lung weight was measured and the lung coefficient was calculated. […]

[3] = system: rat with pulmonary fibrosis induced by bleomycin; assay: HE staining score, intravenous injection (Example 23); conditions: inflammatory pathology score, grade 0 to 3; intravenous injection 10 mg/kg once a day, 4th to 13th day after bleomycin 4 mg/kg; Mean ± SEM
Excerpt: (§2) The lung tissue of the rats of Example 2 was taken, fixed with 4% paraformaldehyde and embedded in paraffin. The wax block embedded the lung tissue was sectioned along the largest cross section. Pathological changes in lung tissue were observed using hematoxylin-eosin (HE) staining. Pathological changes in lung tissue were observed under a light microscope (low magnification) at a magnification of 100 times (the result is shown in FIG. 2).
According to the method provided by Szapie, et al., the degree of alveolitis was graded according to the range of lesions and could be divided into 0 to 3 grades, corresponding to 0 to 3 points. The evaluation indexes for the degree of alveolitis are as follows: grade 0, no alveolitis; grade 1, mild alveolitis, manifested as a slight increase in alveolar septum, infiltration of monocytes, near the pleura or localized, with a lesion range of less than 20% without alveolar structural damage; grade 2, moderate alveolitis, the lesion ranges from 20% to 50%, relatively severe near the pleura; grade 3, severe alveolitis, diffusely distributed, the lesion range is more than 50%, with pulmonary parenchymal lesion occasionally.
The rats were weighed before administration, intramuscularly injected with 65 mg/kg Zoletil anesthetic solution. After the rats entered the stage III anesthesia, the experimental rats were fixated in the lateral decubitus. […]

[4] = system: rat with pulmonary fibrosis induced by bleomycin; assay: Masson staining score, intravenous injection (Example 24); conditions: fibrosis pathology score, grade 0 to 8; intravenous injection 10 mg/kg once a day, 4th to 13th day after bleomycin 4 mg/kg; Mean ± SEM
Excerpt: as §2, with “9” for “2”, “staining by Masson's trichrome stain (Masson).” for “hematoxylin-eosin (HE) staining.”, “15).” for “2).”
According to the Modified Ashcroft scale scoring method, the degree of pulmonary fibrosis was evaluated according to the range of lesions and could be divided into 0 to 8 grades.
as §1, with “mg/kg). On the 4th day, the sterile saline or peptide drug was injected through the tail vein once a day until the 13th day.” for “mg/kg).”

[5] = system: rat with pulmonary fibrosis induced by bleomycin; assay: Hydroxyproline content in rat lung tissue, acid hydrolysis, intravenous injection (Example 25); conditions: intravenous injection 10 mg/kg once a day, 4th to 13th day after bleomycin 4 mg/kg; Mean ± SEM
Procedure: as §1, with “mg/kg). On the 4th day, the sterile saline or peptide drug was injected through the tail vein once a day until the 13th day. The rats were sacrificed on the 14th day for subsequent experiments. The rats in the control group were received no drug treatment; the rats in the model group were injected with sterile saline through the tail vein; the rats in the treatment groups were injected with corresponding peptide drug (10 mg/kg) through the tail vein.” for “mg/kg).”
The lung tissue in the model group, the control group and the treatment groups of Example 20 was taken, and the hydroxyproline content in lung tissue was detected using BioVision Hydroxyproline Acid Hydrolysis Assay Kit (Cat. No. K555-100), the result is shown in the HYP values in Table 4.

active TGF-β = assay: Active TGF-β content in rat lung tissue by ELISA (Example 27); conditions: active TGF-β/total TGF-β; intravenous injection 10 mg/kg once a day, 4th to 13th day after bleomycin 4 mg/kg; Mean ± SEM
Procedure: The rat lung tissue in the model group, the control group and the N4 treatment group of Example 9 was taken, and homogenized using RIPA lysate (100 mg of lung tissue corresponding to 1 mL of lysate), centrifuged and the supernatant was taken, and then the protein concentration was determined by BCA method. Equal amounts of protein samples were taken and the active TGF-β content was measured by enzyme-linked immunosorbent assay ELISA (Promega, Cat. No. G7591) (the result is shown in FIG. 10), and one-way ANOVA was used for biostatistical analysis.
as §1
The rat lung tissue in the model group, the control group and the treatment groups of Example 20 was taken, and the active TGF-β content was measured by ELISA. […]

Sequence: YRVRFLAKENVTQDAEDN [N1]
- Weight Ratio [1]: 1.05 ± 0.02
- Lung Coefficient [2]: 9.25 ± 0.28
- HE Score [3]: 2.44 ± 0.24
- Masson Score [4]: 3.85 ± 0.11
- HYP (hydroxyproline content in lung tissue) [5]: 34.09 ± 5.01
- TGF-β (active TGF-β content in lung tissue) (active TGF-β): 13.15 ± 0.48
